These results are taken from US10358446B2, “Bruton's tyrosine kinase inhibitors” (Zibo Biopolar Changsheng Pharmaceutical Co. Ltd., priority 2015, dated 2019).

Sequence of BTK (Q06187 whole entry, species assumed): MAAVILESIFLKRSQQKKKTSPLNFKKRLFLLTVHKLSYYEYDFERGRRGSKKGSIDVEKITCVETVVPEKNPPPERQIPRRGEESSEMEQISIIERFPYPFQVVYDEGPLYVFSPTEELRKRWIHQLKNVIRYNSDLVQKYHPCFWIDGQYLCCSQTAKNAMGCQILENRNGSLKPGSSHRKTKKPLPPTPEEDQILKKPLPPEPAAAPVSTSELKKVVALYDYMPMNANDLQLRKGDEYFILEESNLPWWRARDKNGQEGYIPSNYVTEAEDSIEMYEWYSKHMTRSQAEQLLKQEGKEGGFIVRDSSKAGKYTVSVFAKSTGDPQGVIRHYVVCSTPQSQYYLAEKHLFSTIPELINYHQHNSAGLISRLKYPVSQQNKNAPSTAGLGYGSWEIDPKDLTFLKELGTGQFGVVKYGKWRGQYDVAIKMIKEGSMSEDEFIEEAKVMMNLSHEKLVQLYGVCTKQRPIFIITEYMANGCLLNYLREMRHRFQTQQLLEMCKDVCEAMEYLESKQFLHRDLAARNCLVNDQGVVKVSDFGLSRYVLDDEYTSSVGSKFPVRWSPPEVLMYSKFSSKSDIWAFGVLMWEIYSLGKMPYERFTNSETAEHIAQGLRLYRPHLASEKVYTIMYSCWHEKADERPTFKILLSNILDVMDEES

For the assay, the target named is BTK (Homo sapiens (Human), UniProt Q06187). Kind of assay: Btk kinase assay (HTRF). Conditions: [ATP]=80 μM, BTK=3.4 nM; read-out: BTK Inhibition. In kind it is biochemical. Put shortly:
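BTK (3.4 nM) incubated 1 h with inhibitor, 80 μM ATP and 1 μM peptide substrate in 50 mM HEPES pH 7.0 with BSA and orthovanadate. Reaction stopped with EDTA plus Eu-antibody/XL665; HTRF 665/615 ratio read after 1 h, IC50 calculated relative to no-inhibitor and no-enzyme controls.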
Background: TR-FRET usually uses a lanthanide donor and a delayed reading to cut background.
Turning to `C=CC(=O)N1CC[C@@H](n2c(=O)n(-c3ccc(Oc4cccc(Cl)c4)c(F)c3)c3cnccc32)C1` [Example 149, (R)-1-(1-acryloylpyrrolidin-3-yl)-3-(4-(3-chlorophenoxy)-3-fluorophenyl)-1H-imidazo[4,5-c]pyridin-2(3H)-one], the IC50 is 10 to 100 nM.
As for `C=CC(=O)Nc1cccc(-n2c(=O)n(-c3ccc(NC(=O)c4ccc(C(F)(F)F)cc4)cc3)c3cnccc32)c1` [Example 263, N-(4-(1-(3-acrylamidophenyl)-2-oxo-1,2-dihydro-3H-imidazo[4,5-c]pyridin-3-yl)phenyl)-4-(trifluoromethyl)benzamide], the figure is 100 to 1000 nM.
On to `C=CC(=O)Nc1cccc(-n2c(=O)n(-c3cccc(NC(=O)c4ccc(C(C)(C)C)cc4)c3)c3cnccc32)c1` [Example 260, N-(3-(1-(3-acrylamidophenyl)-2-oxo-1H-imidazo[4,5-c]pyridin-3(2H)-yl)phenyl)-4-(tert-butyl)benzamide], for which the IC50 is 10 to 100 nM.
For `C=CC(=O)Nc1cccc(-n2c(=O)n(-c3ccc(OCc4cccc(Cl)c4F)c(F)c3)c3cnccc32)c1` [Example 238, N-(3-(3-(4-((3-chloro-2-fluorobenzyl)oxy)-3-fluorophenyl)-2-oxo-2,3-dihydro-1H-imidazo[4,5-c]pyridin-1-yl)phenyl)acrylamide], the IC50 was in the range of 100 to 1000 nM.
As for `C=CC(=O)N1CCC[C@@H](n2c(=O)n(-c3ccc(Oc4cccc(C)c4)c(F)c3)c3cnccc32)C1` [Example 105, (R)-1-(1-acryloylpiperidin-3-yl)-3-(3-fluoro-4-(m-tolyloxy)phenyl)-1H-imidazo[4,5-c]pyridin-2(3H)-one], the figure is 10 to 100 nM; as for `C=CC(=O)N1CCC[C@@H](n2c(=O)n(-c3ccc(Oc4cccc(OC)c4F)cc3)c3cncc(C)c32)C1` [Example 168, (R)-1-(1-acryloylpiperidin-3-yl)-3-(4-(2-fluoro-3-methoxyphenoxy)phenyl)-7-methyl-1H-imidazo[4,5-c]pyridin-2(3H)-one], at most 10 nM.
As for `C=CC(=O)Nc1cccc(-n2c(=O)n(-c3ccc(Oc4ccccc4)c(C)c3)c3cnccc32)c1` [Example 27, N-(3-(3-(3-methyl-4-phenoxyphenyl)-2-oxo-2,3-dihydro-1H-imidazo [4,5-c]pyridin-1-yl)phenyl)acrylamide], the figure is 1000 to 10000 nM; as for `CC#CC(=O)N1CCC[C@@H]1Cn1c(=O)n(-c2ccc(Oc3cccc(OC)c3F)cc2)c2cncc(C)c21` [Example 169, (R)-1-((1-(but-2-ynoyl)pyrrolidin-2-yl)methyl)-3-(4-(2-fluoro-3-methoxyphenoxy)phenyl)-7-methyl-1H-imidazo[4,5-c]pyridin-2(3H)-one], 100 to 1000 nM; as for `C=CC(=O)Nc1cccc(-n2c(=O)n(-c3ccc(OCc4ccc(F)cc4F)cc3)c3cnccc32)c1` [Example 248, N-(3-(3-(4-((2,4-difluorobenzyl)oxy)phenyl)-2-oxo-2,3-dihydro-1H-imidazo[4,5-c]pyridin-1-yl)phenyl)acrylamide], 100 to 1000 nM.
As for `C=CC(=O)Nc1cccc(-n2c(=O)n(-c3ccc(Oc4cccc(F)c4)c(C)c3)c3cnccc32)c1` [Example 146, N-(3-(3-(4-(3-fluorophenoxy)-3-methylphenyl)-2-oxo-2,3-dihydro-1H-imidazo[4,5-c]pyridin-1-yl)phenyl)acrylamide], the figure is 10 to 100 nM.
Regarding `C=CC(=O)N1CC[C@@H](n2c(=O)n(-c3ccc(OCc4ccccc4)c(F)c3)c3cnccc32)C1` [Example 237, (R)-1-(1-acryloylpyrrolidin-3-yl)-3-(4-(benzyloxy)-3-fluorophenyl)-1,3-dihydro-2H-imidazo[4,5-c]pyridin-2-one], the IC50 is 10 to 100 nM.
Regarding `C=CC(=O)N1CCC[C@@H](n2c(=O)n(-c3ccc(Oc4cccc(OC)c4F)cc3)c3cncc(OC)c32)C1` [Example 166, (R)-1-(1-acryloylpiperidin-3-yl)-3-(4-(2-fluoro-3-methoxyphenoxy)phenyl)-7-methoxy-1H-imidazo[4,5-c]pyridin-2(3H)-one], the IC50 is at most 10 nM.
With `C=CC(=O)N1CC[C@@H](n2c(=O)n(-c3ccc(OCc4ccccn4)c(Cl)c3)c3cnccc32)C1` [Example 204, (R)-1-(1-acryloylpyrrolidin-3-yl)-3-(3-chloro-4-(pyridin-2-ylmethoxy)phenyl)-1H-imidazo[4,5-c]pyridin-2(3H)-one] the figure was 100 to 1000 nM; with `C=CC(=O)Nc1cccc(-n2c(=O)n(-c3ccc(-c4cccc(C)c4)cc3)c3cnccc32)c1` [Example 270, N-(3-(3-(3′-methyl-[1,1′-biphenyl]-4-yl)-2-oxo-2,3-dihydro-1H-imidazo[4,5-c]pyridin-1-yl)phenyl)acrylamide], at least 10000 nM.
For `C=CC(=O)Nc1cccc(-n2c(=O)n(-c3ccc(Oc4cc(Cl)cc(Cl)c4)cc3)c3cnccc32)c1` [Example 130, N-(3-(3-(4-(3,5-dichlorophenoxy)phenyl)-2-oxo-2,3-dihydro-1H-imidazo[4,5-c]pyridin-1-yl)phenyl)acrylamide], the IC50 was in the range of 100 to 1000 nM.
As for `C=CC(=O)N1CC[C@@H](n2c(=O)n(-c3ccc(Oc4ccc(OC)cc4)cc3)c3cnccc32)C1` [Example 35, (R)-1-(1-acryloylpyrrolidin-3-yl)-3-(4-(4-methoxyphenoxy)phenyl)-1H-imidazo[4,5-c]pyridin-2(3H)-one], the figure is 10 to 100 nM; as for `C=CC(=O)Nc1cccc(-n2c(=O)n(-c3ccc(Oc4cccc(C)c4)c(C)c3)c3cnccc32)c1` [Example 47, N-(3-(3-(3-methyl-4-(m-tolyloxy)phenyl)-2-oxo-2,3-dihydro-1H-imidazo[4,5-c]pyridin-1-yl)phenyl) acrylamide], 1000 to 10000 nM.
With `C=CC(=O)N1CC[C@@H](n2c(=O)n(-c3ccc(Oc4cccc(F)c4)c(Cl)c3)c3cnccc32)C1` [Example 41, (R)-1-(1-acryloylpyrrolidin-3-yl)-3-(3-chloro-4-(3-fluorophenoxy)phenyl)-1H-imidazo[4,5-c]pyridin-2(3H)-one] the figure was at most 10 nM; with `C=CC(=O)N1CC[C@@H](n2c(=O)n(-c3ccc(OCc4ccccc4F)cc3)c3cnccc32)C1` [Example 216, (R)-1-(1-acryloylpyrrolidin-3-yl)-3-(4-((2-fluorobenzyl)oxy)phenyl)-1H-imidazo[4,5-c]pyridin-2(3H)-one], 100 to 1000 nM; with `C=CC(=O)N1CCC[C@@H](n2c(=O)n(-c3ccc(Oc4cccc(Cl)c4)cc3)c3cnccc32)C1` [Example 106, (R)-1-(1-acryloylpiperidin-3-yl)-3-(4-(3-chlorophenoxy)phenyl)-1H-imidazo[4,5-c]pyridin-2(3H)-one], 10 to 100 nM.
With `C=CC(=O)N1CC[C@H](n2c(=O)n(-c3ccc(NC(=O)c4ccc(C)c(C(F)(F)F)c4)cc3)c3cnccc32)C1` [Example 269, (S)-N-(4-(1-(1-acryloylpyrrolidin-3-yl)-2-oxo-1H-imidazo[4,5-c]pyridin-3(2H)-yl)phenyl)-4-methyl-3-(trifluoromethyl)benzamide], the IC50 was 100 to 1000 nM.
With `C=CC(=O)N1CC[C@@H](n2c(=O)n(-c3ccc(OCc4cc(F)cc(F)c4)c(Cl)c3)c3cnccc32)C1` [Example 207, (R)-1-(1-acryloylpyrrolidin-3-yl)-3-(3-chloro-4-((3,5-difluorobenzyl)oxy)phenyl)-1H-imidazo[4,5-c]pyridin-2(3H)-one] the figure was 100 to 1000 nM; with `C=CC(=O)Nc1cccc(-n2c(=O)n(-c3cccc(Oc4ccc(C)cc4)c3)c3cnccc32)c1` [Example 76, N-(3-(2-oxo-3-(3-(p-tolyloxy)phenyl)-2,3-dihydro-1H-imidazo[4,5-c]pyridin-1-yl)phenyl)acrylamide], 10 to 100 nM; with `C=CC(=O)Nc1cccc(-n2c(=O)n(-c3ccc(OCc4ccc(Cl)cc4F)cc3)c3cnccc32)c1` [Example 245, N-(3-(3-(4-((4-chloro-2-fluorobenzyl)oxy)phenyl)-2-oxo-2,3-dihydro-1H-imidazo[4,5-c]pyridin-1-yl)phenyl)acrylamide], 100 to 1000 nM.
With `C=CC(=O)Nc1cccc(-n2c(=O)n(-c3ccc(OCc4ccc(Cl)cc4)cc3)c3cnccc32)c1` [Example 221, N-(3-(3-(4-((4-chlorobenzyl)oxy)phenyl)-2-oxo-2,3-dihydro-1H-imidazo[4,5-c]pyridin-1-yl)phenyl)acrylamide] the figure was 10 to 100 nM; with `C=CC(=O)Nc1cccc(-n2c(=O)n(-c3cccc(Oc4ccccc4)c3)c3cnccc32)c1` [Example 7, N-(3-(2-oxo-3-(3-phenoxyphenyl)-2,3-dihydro-1H-imidazo[4,5-c]pyridin-1-yl)phenyl)acrylamide], 10 to 100 nM.
With `C=CC(=O)N1CC[C@@H](n2c(=O)n(-c3ccc(Oc4ccccc4)cc3)c3cncc(C#N)c32)C1` [Example 181, (R)-1-(1-acryloylpyrrolidin-3-yl)-oxo-3-(4-phenoxyphenyl)-2,3-dihydro-1H-imidazo[4,5-c] pyridine-7-carbonitrile] the figure was 10 to 100 nM.
As to `C=CC(=O)N1CCC[C@@H]1Cn1c(=O)n(-c2ccc(Oc3cccc(OC)c3F)cc2)c2cncc(C)c21` [Example 170, (R)-1-((1-acryloylpyrrolidin-2-yl)methyl)-3-(4-(2-fluoro-3-methoxyphenoxy)phenyl)-7-methyl-1H-imidazo[4,5-c]pyridin-2(3H)-one], the IC50 lay in the range of 100 to 1000 nM.
With `C=CC(=O)N1CC[C@@H](n2c(=O)n(-c3cccc(-c4ccccc4)c3)c3cnccc32)C1` [Example 277, (R)-3-([1,1′-biphenyl]-3-yl)-1-(1-acryloylpyrrolidin-3-yl)-1H-imidazo[4,5-c]pyridin-2(3H)-one] the figure was 100 to 1000 nM; with `C=CC(=O)N1CC[C@@H](n2c(=O)n(-c3cccc(Oc4cccc(Cl)c4F)c3)c3cnccc32)C1` [Example 97, (R)-1-(1-acryloylpyrrolidin-3-yl)-3-(3-(3-chloro-2-fluorophenoxy)phenyl)-1,3-dihydro-2H-imidazo[4,5-c]pyridin-2-one], 10 to 100 nM.
